Reference: ChEMBL document CHEMBL6103613 (J Med Chem, 2025)
pKd: −log10 of the molar value. ≈ marks a conversion by molar mass, not a printed value. Calls of active or inactive are those of the source. No cut-off for these calls is given here.

Columns and labels:
Staphylococcus aureus [1] = test: Antimicrobial activity against Staphylococcus aureus assessed as inhibition of visible bacterial growth incubated for 18 hrs by CLSI based analysis; assay type: functional
Staphylococcus aureus [2] = test: Upregulation of Mnh1 expression in Staphylococcus aureus at 12.5 microg/ml incubated for 3 hrs by RNA sequencing analysis; assay type: functional; conditions: dose 12.5 µg/ml
Staphylococcus aureus [3] = test: Upregulation of SgtB expression in Staphylococcus aureus at 12.5 microg/ml incubated for 3 hrs by RNA sequencing analysis; assay type: functional; conditions: dose 12.5 µg/ml
[4] = Therapeutic index, ratio of HC5 for hemolytic activity in mouse Red blood cell to MIC for antimicrobial activity against Staphylococcus aureus ATCC 25923 assessed as inhibition of visible bacterial growth; assay type: toxicity, cell-based, RBC; conditions: red blood cells, read-out: TI
Cell membrane [5] = test: Induction of cell membrane depolarization in Staphylococcus aureus assessed as increase in fluorescence intensity at 1 to 8 times MIC by DiOC2 (3) dye based assay; assay type: subcellular
[6] = Toxicity in mouse assessed as liver damage at 50 mg/kg, ip measured for 7 days by H and E staining based analysis; assay type: organism-based; conditions: in vivo, 168 h, time 7 day
[7] = system: Staphylococcus epidermidis; test: Antimicrobial activity against Staphylococcus epidermidis ATCC 12228 assessed as inhibition of visible bacterial growth incubated for 18 hrs by CLSI based analysis; assay type: functional
Staphylococcus aureus [8] = test: Antimicrobial activity against Staphylococcus aureus incubated for 0.5 hrs in presence of Mg+; assay type: functional, organism-based
Staphylococcus aureus [9] = test: Antibiofilm activity in Staphylococcus aureus assessed as biofilm eradication at 8 times MIC relative to control; assay type: functional
Cell membrane [10] = test: Disruption of cell membrane integrity in Staphylococcus aureus at 4 times of MIC incubated upto 20 mins by fluorescence microscopic analysis; assay type: subcellular
[11] = Toxicity in mouse assessed as change in bowel movement intake at 50 mg/kg, ip measured for 7 days; assay type: organism-based; conditions: in vivo, 168 h, time 7 day
RAW264.7 = test: Cytotoxicity against mouse RAW264.7 cells assessed as cell viability at 6.25 to 100 microg/ml incubated for 24 hrs by MTT assay; assay type: toxicity, cell-based; conditions: raw264.7, 24 h
Staphylococcus aureus [12] = test: Induction of ROS production in Staphylococcus aureus assessed as increase in fluorescence intensity at 4 times MIC by DCFH-DA probe based assay; assay type: functional, organism-based
Staphylococcus aureus [13] = test: Upregulation of superoxide dismutase expression in Staphylococcus aureus at 12.5 microg/ml incubated for 3 hrs by RNA sequencing analysis; assay type: functional; conditions: dose 12.5 µg/ml
[14] = Toxicity in mouse assessed as spleen damage at 50 mg/kg, ip measured for 7 days by H and E staining based analysis; assay type: organism-based; conditions: in vivo, 168 h, time 7 day
[15] = Toxicity in mouse assessed as change in body weight gain at 50 mg/kg, ip measured for 7 days; assay type: organism-based; conditions: in vivo, 168 h, time 7 day
Staphylococcus aureus [16] = test: Upregulation of CwrA expression in Staphylococcus aureus at 12.5 microg/ml incubated for 3 hrs by RNA sequencing analysis; assay type: functional; conditions: dose 12.5 µg/ml
Staphylococcus aureus [17] = test: Antimicrobial activity against Staphylococcus aureus incubated for 0.5 hrs in presence of K+; assay type: functional, organism-based
Staphylococcus aureus [18] = test: Antimicrobial activity against Staphylococcus aureus assessed as reduction in bacterial growth at 2 times MIC incubated for 2 hrs by time-killing assay; assay type: functional; parameters: scale not given: the % may be the effect or the level left
Peptidoglycan [19] = test: Binding affinity to Staphylococcus aureus peptidoglycan assessed as change in enthalpy by ITC analysis
Staphylococcus aureus [20] = test: Upregulation of TarF expression in Staphylococcus aureus at 12.5 microg/ml incubated for 3 hrs by RNA sequencing analysis; assay type: functional; conditions: dose 12.5 µg/ml
[21] = Toxicity in mouse assessed as change in water intake at 50 mg/kg, ip measured for 7 days; assay type: organism-based; conditions: in vivo, 168 h, time 7 day
Enterococcus faecium = test: Antimicrobial activity against vancomycin-resistant Enterococcus faecium assessed as inhibition of visible bacterial growth incubated for 18 hrs by CLSI based analysis; assay type: functional
Staphylococcus aureus [22] = test: Antimicrobial activity against Staphylococcus aureus at 100 degreeC incubated for 0.5 hrs; assay type: functional, organism-based
[23] = Toxicity in mouse assessed as heart damage at 50 mg/kg, ip measured for 7 days by H and E staining based analysis; assay type: organism-based; conditions: in vivo, 168 h, time 7 day
Staphylococcus aureus [24] = test: Antimicrobial activity against methicillin-resistant Staphylococcus aureus ATCC 43300 assessed as inhibition of visible bacterial growth incubated for 18 hrs by CLSI based analysis; assay type: functional
Peptidoglycan [25] = test: Binding affinity to Staphylococcus aureus peptidoglycan assessed as dissociation constant by ITC analysis
Staphylococcus aureus [26] = test: Antibacterial activity against methicillin-resistant Staphylococcus aureus infected in kunming mouse pneumonia model assessed as reduction in colony count in lung at 5 mg/kg, ip measured upto 8 days; assay type: functional, organism-based; conditions: time <= 8.0 day
Staphylococcus aureus [27] = test: Antibacterial activity against methicillin-resistant Staphylococcus aureus infected in kunming mouse pneumonia model assessed as decrease in IL-6 expression in lung at 5 mg/kg, ip measured upto 8 days; assay type: functional, organism-based; conditions: time <= 8.0 day
Staphylococcus aureus [28] = test: Antibacterial activity against methicillin-resistant Staphylococcus aureus infected in kunming mouse pneumonia model assessed as decrease in TNF-alpha expression in lung at 5 mg/kg, ip measured upto 8 days; assay type: functional, organism-based; conditions: time <= 8.0 day
[29] = Toxicity in mouse assessed as change in behavior at 50 mg/kg, ip measured for 7 days; assay type: organism-based; conditions: in vivo, 168 h, time 7 day
Enterococcus faecalis = test: Antimicrobial activity against Enterococcus faecalis ATCC 19433 assessed as inhibition of visible bacterial growth incubated for 18 hrs by CLSI based analysis; assay type: functional

CC(C)[C@@H]1NC(=O)[C@@H](C(C)C)NC(=O)[C@H](C(C)C)NC(=O)[C@@H](CCCCN)NC(=O)[C@H](Cc2c(C(c3ccccc3)(c3ccccc3)c3ccccc3)[nH]c3ccccc23)NC(=O)[C@@H](C(C)C)NC(=O)[C@@H]2CSC1N2
MIC (Staphylococcus aureus [1]): 3.13 µg/mL (≈ 3.01 µM) | Activity (Staphylococcus aureus [2]): Active | Activity (Staphylococcus aureus [3]): Active | selectivity ratio [4]: > 16 | Activity (Cell membrane [5]): Dose-dependent-effect | Activity [6]: Non-toxic | MIC [7]: 6.25 µg/mL (≈ 6.01 µM) | Activity (Staphylococcus aureus [8]): Active | Activity (Staphylococcus aureus [9]): 90% | Activity (Cell membrane [10]): Active | Activity [11]: Non-toxic | Activity (RAW264.7): Non-toxic | Activity (Staphylococcus aureus [12]): Active | Activity (Staphylococcus aureus [13]): Active | Activity [14]: Non-toxic | Activity [15]: Non-toxic | Activity (Staphylococcus aureus [16]): Active | Activity (Staphylococcus aureus [17]): Active | Activity (Staphylococcus aureus [18]): >99% | deltaH (Peptidoglycan [19]): 0.925 kcal/mol | Activity (Staphylococcus aureus [20]): Active | Activity [21]: Non-toxic | MIC (Enterococcus faecium): 12.5 µg/mL (≈ 12 µM) | Activity (Staphylococcus aureus [22]): Active | Activity [23]: Non-toxic | MIC (Staphylococcus aureus [24]): 6.25 µg/mL (≈ 6.01 µM) | pKd (Peptidoglycan [25]): 6.21 | Activity (Staphylococcus aureus [26]): Active | Activity (Staphylococcus aureus [27]): Active | Activity (Staphylococcus aureus [28]): Active | Activity [29]: Non-toxic | MIC (Enterococcus faecalis): 12.5 µg/mL (≈ 12 µM)
